Among the data in patent publication US20230078764A1 (Yumanity Therapeutics, Inc., priority 2019, published 2023) are IC50 values, retold here.

The target of one test is T1, human SCD5 (Homo sapiens, UniProt Q86SK9).
T1 construct: expressed in transfected cells; host or cells: yeast strain with OLE1 deleted, plasmid-borne human SCD5 (selected in SD-Ura)
T1 sequence (Q86SK9 1-330): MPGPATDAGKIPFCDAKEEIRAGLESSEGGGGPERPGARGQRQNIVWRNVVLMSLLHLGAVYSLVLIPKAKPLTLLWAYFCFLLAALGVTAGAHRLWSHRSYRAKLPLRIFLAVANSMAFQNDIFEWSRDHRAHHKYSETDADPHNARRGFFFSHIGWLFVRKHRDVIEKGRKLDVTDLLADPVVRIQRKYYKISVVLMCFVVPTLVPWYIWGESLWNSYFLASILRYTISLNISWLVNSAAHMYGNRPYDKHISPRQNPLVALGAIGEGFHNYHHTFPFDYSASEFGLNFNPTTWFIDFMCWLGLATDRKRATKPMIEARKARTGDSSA
In words: Growth inhibition of yeast strain expressing human SCD5 as sole desaturase (OLE1 deleted), OD600 readout. It counts as cell-based. Conditions: yeast strain expressing human SCD5 as sole desaturase; growth (OD600) after 40 h at 30° C.; read-out: SCD5 IC50.

The next test concerns the target T2, human SCD1 (Homo sapiens, UniProt O00767).
T2 construct: expressed in transfected cells; host or cells: yeast strain with OLE1 deleted, plasmid-borne human SCD1 (selected in SD-Ura)
T2 sequence (O00767 1-359): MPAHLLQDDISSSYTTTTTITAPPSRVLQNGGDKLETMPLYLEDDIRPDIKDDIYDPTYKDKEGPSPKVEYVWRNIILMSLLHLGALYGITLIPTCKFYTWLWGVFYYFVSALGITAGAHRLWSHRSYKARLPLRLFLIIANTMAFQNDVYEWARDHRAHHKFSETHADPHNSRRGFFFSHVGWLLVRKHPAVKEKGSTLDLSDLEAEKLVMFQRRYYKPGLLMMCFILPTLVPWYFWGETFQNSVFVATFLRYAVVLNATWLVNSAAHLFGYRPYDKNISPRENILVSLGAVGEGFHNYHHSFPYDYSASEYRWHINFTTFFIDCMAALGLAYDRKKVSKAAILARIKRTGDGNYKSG
In words: Growth inhibition of yeast strain expressing human SCD1 as sole desaturase (OLE1 deleted), OD600 readout. It counts as cell-based. Conditions: yeast strain expressing human SCD1 as sole desaturase; growth (OD600) after 40 h at 30° C.; read-out: SCD1 IC50.

In the case of `CN1N=C(NC(=O)c2ccc(Cc3cccc(Cl)c3)cn2)CCC1=O` [Compound 86, 5-(3-Chlorobenzyl)-N-(1-methyl-6-oxo-1,4,5,6-tetrahydropyridazin-3-yl)picolinamide], the IC50 is 70 nM on human SCD5 and 9690 nM on human SCD1.

Regarding `CN1N=C(NC(=O)c2ccc(Cc3ccc(F)c(F)c3)cn2)CCC1=O` [Compound 87, 5-(3,4-Difluorobenzyl)-N-(1-methyl-6-oxo-1,4,5,6-tetrahydropyridazin-3-yl)picolinamide], the half-maximal inhibitory concentration (IC50) on human SCD5 was 280 nM; on human SCD1 it was above 45000 nM.

On to `Cn1nc(NC(=O)c2ccc(Cc3cccc(F)c3)cn2)ccc1=O` [Compound 88, 5-(3-Fluorobenzyl)-N-(1-methyl-6-oxo-1,6-dihydropyridazin-3-yl)picolinamide], for which the figures for the IC50 at human SCD5 and on human SCD1 were 20 nM and 650 nM, respectively.

Turning to `Cn1nc(NC(=O)c2ccc(Cc3cccc(Cl)c3)cn2)ccc1=O` [Compound 89, 5-(3-Chlorobenzyl)-N-(1-methyl-6-oxo-1,6-dihydropyridazin-3-yl)picolinamide], the results for the IC50 at human SCD5 and on human SCD1 were 10 nM and 110 nM, respectively.

`CN1N=C(NC(=O)c2ccc(Cc3cccc(F)c3)cn2)CCC1=O` [Compound 90, 5-(3-Fluorobenzyl)-N-(1-methyl-6-oxo-1,4,5,6-tetrahydropyridazin-3-yl)picolinamide]: the values for the IC50 at human SCD5 and at human SCD1 were 620 nM and 18000 nM, respectively.

Consider `Cn1ccc(C(=O)Nc2ccc(Cc3cccc(Cl)c3)cn2)n1` [Compound 91, N-(5-(3-chlorobenzyl)pyridin-2-yl)-1-methyl-1H-pyrazole-3-carboxamide], for which the IC50 on human SCD5 and on human SCD1 was 10 nM in each case.

As for `Cn1ccc(C(=O)Nc2ccc(Cc3ccc(F)c(F)c3)cn2)n1` [Compound 92, N-(5-(3,4-difluorobenzyl)pyridin-2-yl)-1-methyl-1H-pyrazole-3-carboxamide], the IC50 on human SCD5 was 20 nM; on human SCD1, 110 nM.

With `Cn1ccc(C(=O)Nc2ccc(Cc3ccc(F)cc3)cn2)n1` [Compound 93, N-(5-(4-fluorobenzyl)pyridin-2-yl)-1-methyl-1H-pyrazole-3-carboxamide], the concentration for half-maximal inhibition (IC50) on human SCD5 came out at 20 nM; on human SCD1 it was 550 nM.

As to `Cn1cc(C(=O)Nc2ccc(Cc3cccc(Cl)c3)cn2)cn1` [Compound 94, N-(5-(3-chlorobenzyl)pyridin-2-yl)-1-methyl-1H-pyrazole-4-carboxamide], the IC50 on human SCD5 came to 10 nM; at human SCD1, 30 nM.

For the compound `Cn1ccc(NC(=O)c2ccc(Cc3cccc(F)c3)cn2)n1` [Compound 95, 5-(3-fluorobenzyl)-N-(1-methyl-1H-pyrazol-3-yl)picolinamide], the half-inhibitory concentration (IC50) on human SCD5 is 10 nM; at human SCD1 it was above 45000 nM.

For `Cn1ccc(C(=O)Nc2ccc(Cc3cc(F)cc(C#N)c3)cn2)n1` [Compound 96, N-(5-(3-cyano-5-fluorobenzyl)pyridin-2-yl)-1-methyl-1H-pyrazole-3-carboxamide], the concentration for half-maximal inhibition (IC50) on human SCD5 was 130 nM; on human SCD1, 1080 nM.

Regarding `CCn1ccc(C(=O)Nc2ccc(Cc3cc(F)cc(F)c3)cn2)n1` [Compound 97, N-(5-(3,5-difluorobenzyl)pyridin-2-yl)-1-ethyl-1H-pyrazole-3-carboxamide], the half-inhibitory concentration (IC50) at human SCD5 turned out to be 20 nM; on human SCD1, 1100 nM.

For the compound `CCn1ccc(C(=O)Nc2ccc(Cc3ccc(F)c(F)c3)cn2)n1` [Compound 98, N-(5-(3,4-difluorobenzyl)pyridin-2-yl)-1-ethyl-1H-pyrazole-3-carboxamide], the 50% inhibitory concentration (IC50) turned out to be 40 nM on human SCD5 and 2960 nM at human SCD1.

For the compound `CCn1ccc(C(=O)Nc2ccc(Cc3cc(F)cc(Cl)c3)cn2)n1` [Compound 99, N-(5-(3-chloro-5-fluorobenzyl)pyridin-2-yl)-1-ethyl-1H-pyrazole-3-carboxamide], the 50% inhibitory concentration (IC50) at human SCD5 is 10 nM; at human SCD1, 140 nM.

Take `CCn1ccc(C(=O)Nc2ccc(Cc3cccc(Cl)c3)cn2)n1` [Compound 100, N-(5-(3-chlorobenzyl)pyridin-2-yl)-1-ethyl-1H-pyrazole-3-carboxamide]: the values for the IC50 on human SCD5 and on human SCD1 were 20 nM and 1740 nM, respectively.

Turning to `CCn1ccc(C(=O)Nc2ccc(Cc3cccc(F)c3)cn2)n1` [Compound 101, 1-ethyl-N-(5-(3-fluorobenzyl)pyridin-2-yl)-1H-pyrazole-3-carboxamide], the 50% inhibitory concentration (IC50) was found to be 20 nM on human SCD5 and 1080 nM on human SCD1.

For the compound `CCn1ccc(C(=O)Nc2ccc(Cc3ccc(F)cc3)cn2)n1` [Compound 102, 1-ethyl-N-(5-(4-fluorobenzyl)pyridin-2-yl)-1H-pyrazole-3-carboxamide], the IC50 on human SCD5 is 80 nM; at human SCD1, 10300 nM.

For the compound `Cc1nnc(C(=O)Nc2ccc(Cc3cccc(Cl)c3)cn2)s1` [Compound 103, N-(5-(3-chlorobenzyl)pyridin-2-yl)-5-methyl-1,3,4-thiadiazole-2-carboxamide], the IC50 at human SCD5 came out at 80 nM; at human SCD1, 160 nM.

Take `Cc1nnc(C(=O)Nc2ccc(Cc3cccc(Cl)c3)cn2)o1` [Compound 104, N-(5-(3-chlorobenzyl)pyridin-2-yl)-5-methyl-1,3,4-oxadiazole-2-carboxamide]: the IC50 at human SCD5 and on human SCD1 was 40 nM throughout.

Consider `CN1N=C(C(=O)Nc2ccc(Cc3cccc(Cl)c3)cn2)CC1=O` [Compound 105, N-(5-(3-chlorobenzyl)pyridin-2-yl)-1-methyl-5-oxo-4,5-dihydro-1H-pyrazole-3-carboxamide], for which the values for the IC50 on human SCD5 and on human SCD1 were 830 nM and above 45000 nM, respectively.

As to `Cn1nc(C(=O)Nc2ccc(Cc3cccc(F)c3)cn2)cc1O` [Compound 106, N-(5-(3-fluorobenzyl)pyridin-2-yl)-5-hydroxy-1-methyl-1H-pyrazole-3-carboxamide], the IC50 was 1240 nM on human SCD5 and above 45000 nM at human SCD1.

`Cc1cc(C(=O)Nc2ccc(Cc3cccc(F)c3)cn2)no1` [Compound 107, N-(5-(3-fluorobenzyl)pyridin-2-yl)-5-methylisoxazole-3-carboxamide]: the figures for the 50% inhibitory concentration (IC50) at human SCD5 and on human SCD1 were 1060 nM and above 45000 nM, respectively.

`Cn1cc(C(=O)Nc2ccc(Cc3cccc(Cl)c3)cn2)ncc1=O` [Compound 108, N-(5-(3-chlorobenzyl)pyridin-2-yl)-4-methyl-5-oxo-4,5-dihydropyrazine-2-carboxamide]: the half-inhibitory concentration (IC50) at human SCD5 was determined as 1400 nM; on human SCD1 it was 7610 nM.

Take `Cn1nccc(NC(=O)c2ccc(Cc3cccc(F)c3)cn2)c1=O` [Compound 109, 5-(3-fluorobenzyl)-N-(2-methyl-3-oxo-2,3-dihydropyridazin-4-yl)picolinamide]: the half-inhibitory concentration (IC50) was 280 nM at human SCD5 and 370 nM on human SCD1.

As to `COCc1ncc(C(=O)Nc2ccc(Cc3cccc(Cl)c3)cn2)c(OC)n1` [Compound 110, N-(5-(3-chlorobenzyl)pyridin-2-yl)-4-methoxy-2-(methoxymethyl)pyrimidine-5-carboxamide], the IC50 was 220 nM on human SCD5 and 3940 nM at human SCD1.

As for `O=C(Nc1ccc(Cc2cc(F)cc(Cl)c2)cn1)c1ccc(CO)nc1` [Compound 111, N-(5-(3-chloro-5-fluorobenzyl)pyridin-2-yl)-6-(hydroxymethyl)nicotinamide], the half-maximal inhibitory concentration (IC50) at human SCD5 and on human SCD1 was 10 nM in each case.

As to `O=C(Nc1ccc(Cc2ccc(F)c(Cl)c2)cn1)c1ccc(CO)nc1` [Compound 112, N-(5-(3-chloro-4-fluorobenzyl)pyridin-2-yl)-6-(hydroxymethyl)nicotinamide], the IC50 on human SCD5 and on human SCD1 was 10 nM in each case.

With `Cc1nccc(C(=O)Nc2ccc(Cc3ccc(F)c(C#N)c3)cn2)n1` [Compound 113, N-(5-(3-cyano-4-fluorobenzyl)pyridin-2-yl)-2-methylpyrimidine-4-carboxamide], the IC50 on human SCD5 was 10 nM; at human SCD1, 80 nM.

As to `Cc1nccc(C(=O)Nc2ccc(Cc3cccc(Cl)c3)cn2)n1` [Compound 114, N-(5-(3-chlorobenzyl)pyridin-2-yl)-2-methylpyrimidine-4-carboxamide], the IC50 came to 10 nM on human SCD5 and 50 nM on human SCD1.

On to `Cc1nccc(NC(=O)c2ccc(Cc3cccc(F)c3)cn2)n1` [Compound 115, 5-(3-Fluorobenzyl)-N-(2-methylpyrimidin-4-yl)picolinamide], for which the half-maximal inhibitory concentration (IC50) on human SCD5 is 50 nM; at human SCD1, above 45000 nM.

Consider `O=C(Nc1ccc(Cc2ccc(F)cc2)cn1)c1ccc(CO)nc1` [Compound 116, N-(5-(4-fluorobenzyl)pyridin-2-yl)-6-(hydroxymethyl)nicotinamide], for which the IC50 on human SCD5 and at human SCD1 was 10 nM throughout.

As to `Cn1cc(C(=O)Nc2ccc(Cc3cccc(F)c3)cn2)cc(F)c1=O` [Compound 117, 5-fluoro-N-(5-(3-fluorobenzyl)pyridin-2-yl)-1-methyl-6-oxo-1,6-dihydropyridine-3-carboxamide], the half-maximal inhibitory concentration (IC50) on human SCD5 was found to be 70 nM; on human SCD1 it was 630 nM.

A word on the IC50: it is the concentration needed to halve the response being measured.
